In PMC12505902, “Inhibitors of trehalose-6-phosphate synthase activity in fungal pathogens compromise thermal tolerance pathways” (mBio, 2025):

Experiments:
6xHis-CaTps1 = biological target: T1, 6xHis-CaTps1 (Candida albicans, UniProt Q92410); experiment: Microscale thermophoresis (MST); conditions: label-free MST, one-site binding model, n = 3, SD
T1 construct: Briefly, the full-length; thrombin cleavage site (pET-28a linker) (N); made in house; host or cells: E. coli BL21(DE3)pLysS
T1 sequence (Q92410 1-478): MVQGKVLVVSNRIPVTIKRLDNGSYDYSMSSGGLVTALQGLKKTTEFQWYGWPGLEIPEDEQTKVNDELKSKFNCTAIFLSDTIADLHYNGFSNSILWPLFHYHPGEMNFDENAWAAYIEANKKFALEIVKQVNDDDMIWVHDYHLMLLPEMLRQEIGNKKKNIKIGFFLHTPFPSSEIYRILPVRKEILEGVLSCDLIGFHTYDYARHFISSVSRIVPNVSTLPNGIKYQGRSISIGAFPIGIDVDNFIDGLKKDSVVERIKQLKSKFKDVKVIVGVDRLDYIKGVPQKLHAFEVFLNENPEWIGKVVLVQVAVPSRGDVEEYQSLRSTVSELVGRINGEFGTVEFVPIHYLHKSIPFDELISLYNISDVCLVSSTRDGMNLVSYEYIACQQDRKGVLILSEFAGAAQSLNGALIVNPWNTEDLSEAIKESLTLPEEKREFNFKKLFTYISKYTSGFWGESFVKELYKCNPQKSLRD
Method: (§1) Fig 2 4456dh binds Tps1 and inhibits Tps1 activity. (A) Structure of 4456dh. (B and C) Glo-melt thermal shift assays reveal 4456dh destabilizes 6xHis-CaTps1 (B) and 6xHis-CnTps1 (C). The first derivative of the raw data was used to determine the melting temperature of 1 µM 6xHis-CaTps1 (B) and 1 µM 6xHis-CnTps1 (C) treated without (black) or with 2 mM 4456dh (red). […] The resulting dose-response curves were fitted to a one-site binding model to extract Kd values; the SD was calculated using the Kd values from each independent experiment (n = 3). (F) Tps1 enzyme activity assay with 5 µM 6xHis-CaTps1 (F) and 6xHis-CnTps1 (G) ±1 mM 4456dh. Error bars represent SE. […]
(§2) Given the intrinsic fluorescence of CaTps1 and CnTps1, we were able to detect binding without the use of additional fluorophores. […]
(§3) 82 determined by SDS-PAGE analysis, were pooled and concentrated to 1 mg/mL for downstream […]
(§4) 93 The data were acquired with MO.Control 1.5.3 (NanoTemper Technologies GmbH). Recorded
(§5) 94 data were analyzed with MO.Affinity Analysis 2.2.7 (NanoTemper Technologies GmbH). […]
(§6) 100 2X Glo-melt dye. Thermal denaturation was measured using an RT-PCR thermocycler (BioRad) […]
(§7) 102 determined by identifying the inflection point of the derivative data. […]
(§8) 104 The catalytic activity of C. albicans Tps1 and C. neoformans Tps1 was measured via a continuous […]
(§9) 111 reaction rate was recorded using a plate reader (Tecan). […]

6xHis-CnTps1 [1] = biological target: T2, 6xHis-CnTps1 (Cryptococcus neoformans var. grubii, UniProt J9VJZ1); experiment: Microscale thermophoresis (MST); conditions: label-free MST, one-site binding model, n = 3, SD
T2 sequence (J9VJZ1 entry or part of it): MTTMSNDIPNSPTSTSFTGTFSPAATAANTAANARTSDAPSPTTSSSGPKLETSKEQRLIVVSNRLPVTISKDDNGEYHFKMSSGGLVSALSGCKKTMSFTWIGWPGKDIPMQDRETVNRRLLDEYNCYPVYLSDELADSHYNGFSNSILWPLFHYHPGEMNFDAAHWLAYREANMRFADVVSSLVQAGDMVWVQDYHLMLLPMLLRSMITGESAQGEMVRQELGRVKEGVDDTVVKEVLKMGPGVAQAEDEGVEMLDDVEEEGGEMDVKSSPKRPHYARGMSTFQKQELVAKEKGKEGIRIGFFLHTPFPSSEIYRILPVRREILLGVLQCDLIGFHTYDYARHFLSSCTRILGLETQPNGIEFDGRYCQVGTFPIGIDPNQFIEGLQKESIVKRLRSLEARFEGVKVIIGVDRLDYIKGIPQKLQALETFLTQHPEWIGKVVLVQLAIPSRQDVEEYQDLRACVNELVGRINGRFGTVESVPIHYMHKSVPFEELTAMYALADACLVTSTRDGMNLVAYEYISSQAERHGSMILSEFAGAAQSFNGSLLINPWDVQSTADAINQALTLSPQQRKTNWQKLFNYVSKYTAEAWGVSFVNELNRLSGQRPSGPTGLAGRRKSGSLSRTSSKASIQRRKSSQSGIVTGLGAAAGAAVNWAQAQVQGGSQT
Method: as §1, §2, §3, §4, §5, §6, §7, §8, §9

6xHis-CnTps1 [2] = biological target: T2, 6xHis-CnTps1; experiment: Spectrophotometric-coupled Tps1 enzyme activity assay; assay type: biochemical, C. neoformans; conditions: 1 mM 4456dh
Method: as §1
The ability of 4456dh to inhibit the activity of CaTps1 was tested using a spectrophotometric-coupled Tps1 enzyme assay, in which recombinant 6xHis-CaTps1 was incubated with 1 mM 4456dh at 4°C for 16 hours. […] Similarly, the effect of 1 mM 4456dh on 6xHis-CnTps1 activity was determined. […]
as §3, §4, §5, §6, §7

`Cn1cc(-c2csc(NC(=O)Cc3ccccn3)n2)cn1` [Compound 4456dh] was tested, and the Kd (6xHis-CaTps1) was 7.1 µM, the Kd (6xHis-CnTps1 [1]) was 33.4 µM and the inhibition at 1000 µM (6xHis-CnTps1 [2]) was about 30%.
